Measured values reported in patent US20250134825A1, “METHOD FOR PRODUCING MEDICATIONS AND VACCINES” (MSLsolutions GmbH, priority 2022, published 2025).
Each block holds one compound with its values, some of them ahead of it.

How the values were obtained:
[1] = Solubility in solvents (2,5-dimethylisosorbide, water, polyols); details: temperature range 55° C. to 70° C.
[2] = Stability of vitamin C (model substance for mRNA) in the carrier system; type: physicochemical; details: more than 15 wt. % vitamin C, with panthenol, composition of Table 16
[3] = single substance, value given in the literature; cited from earlier work

solubility in 2,5-dimethylisosorbide [1]: dissolved in high concentrations
Structure (SMILES): CC(C)CCC[C@@H](C)[C@H]1CC[C@H]2[C@@H]3CC=C4C[C@@H](O)CC[C@]4(C)[C@H]3CC[C@]12C [cholesterol]

stability in the composition or carrier system [2]: high stability
Structure (SMILES): O=C1O[C@H]([C@@H](O)CO)C(O)=C1O [vitamin C, ascorbic acid]

Structure (SMILES): CCCCCCCCCCCCCCCCCC(=O)OC[C@H](COP(=O)([O-])OCC[N+](C)(C)C)OC(=O)CCCCCCCCCCCCCCCCC [DSPC, 1,2-distearoyl-sn-glycero-3-phosphocholine]
HLB [3]: 4.5

Structure (SMILES): CC[C@H](/C=C/[C@@H](C)[C@H]1CC[C@H]2[C@@H]3CC=C4C[C@@H](O)CC[C@]4(C)[C@H]3CC[C@]12C)C(C)C [stigmasterol]
concentration completely dissolved in 2,5-dimethylisosorbide [1]: over 50%
